The subject of data set [1] is Cerebral cortex neuron. Briefly: Positive allosteric modulation at AMPA receptor in primary cortical neurons assessed as potentiation of kainate-induced current at 100 uM by patch clamp analysis.
Data set [2] has as its system Cerebral cortex neuron. Briefly: Positive allosteric modulation at AMPA receptor in primary cortical neurons assessed as potentiation of kainate-induced current at 10 uM by patch clamp analysis. It counts as cell-based. (In general: In patch-clamp work, channel activity is measured electrically.)
Data set [3] is described as follows: Positive allosteric modulation at AMPA receptor in primary cortical neurons assessed as potentiation of kainate-induced current by patch clamp analysis. As to conditions: Cerebral cortex neuron. It counts as cell-based.
Data set [4] can be described thus: Drug uptake in mouse nucleus accumbens assessed as 7-chloro-5-(3-furyl)-3- methyl-4H-1,2,4-benzothiadiazine 1,1-dioxide level at 20 mg/kg, ip measured after 140 mins. Also noted: dose 20 mg/kg, route intraperitoneal. It is filed as ADME, organism-based. As to conditions: in vivo.
Data set [5] in a line: Drug uptake in mouse nucleus accumbens assessed as 7-chloro-5-(3-furyl)-3- methyl-4H-1,2,4-benzothiadiazine 1,1-dioxide level at 20 mg/kg, ip measured after 1 hr. It is filed as ADME, organism-based. Also noted: dose 20 mg/kg, route intraperitoneal. As to conditions: in vivo, read-out: Drug uptake.
Data set [6] can be described thus: Drug uptake in mouse nucleus accumbens at 20 mg/kg, ip measured after 2 hrs. It is filed as ADME, organism-based. Also noted: dose 20 mg/kg, route intraperitoneal. The note with it: in vivo.
The nature of data set [7]: Drug uptake in mouse nucleus accumbens at 20 mg/kg, ip measured after 40 mins. It is filed as ADME, organism-based. Also noted: dose 20 mg/kg, route intraperitoneal. The note with it: read-out: Drug uptake.
Data set [8] is described as follows: Drug uptake in mouse nucleus accumbens assessed as 7-chloro-5-(3-furyl)-3- methyl-4H-1,2,4-benzothiadiazine 1,1-dioxide level at 20 mg/kg, ip measured after 2 hrs. The arrangement: dose 20 mg/kg, route intraperitoneal. As to conditions: in vivo. It is filed as ADME, organism-based.

Calls of active or inactive are those of the source. No cut-off for these calls is given here. A value given as a limit tells only on which side of the number the result lay.

Take `CCC1Nc2c(-c3ccco3)cc(Cl)cc2S(=O)(=O)N1` (stereo not given): the result with Cerebral cortex neuron [1] was inactive. Moreover, the Activity with Cerebral cortex neuron [2] is less than 10%.
With `CC1Nc2c(-c3ccsc3)cc(Cl)cc2S(=O)(=O)N1` (stereo not given), in the data set on Cerebral cortex neuron [1], the outcome was inactive. The Activity in the data set with Cerebral cortex neuron [2] was 214%.
The like results for `CC1CN2c3c1cc(Cl)cc3S(=O)(=O)NC2C` (racemic) were, in that order, “inactive” and 53%.
The corresponding values for `CC1Nc2c(-c3ccco3)cc(Cl)cc2S(=O)(=O)N1` (stereo not given) are “inactive” and 80%.
The like results for `CC1Nc2c(-c3cccc(N)c3)cc(Cl)cc2S(=O)(=O)N1` (stereo not given) were, in that order, “inactive” and less than 10%.
As for `O=S1(=O)NCNc2c(-c3ccco3)cc(Cl)cc21`, the result in the data set on Cerebral cortex neuron [1] was inactive. Further, in the data set on Cerebral cortex neuron [2], the Activity turned out to be 20%.
Regarding `CCC1Nc2c(-c3ccc(C(=O)O)cc3)cc(Cl)cc2S(=O)(=O)N1` (stereo not given), the outcome in the data set on Cerebral cortex neuron [1] was inactive. For the same compound, the Activity in the data set with Cerebral cortex neuron [2] is less than 10%.
The corresponding values for `Nc1cccc(-c2cc(Cl)cc3c2NCNS3(=O)=O)c1` are “inactive” and less than 10%.
The corresponding values for `CC1Nc2c(-c3cccs3)cc(Cl)cc2S(=O)(=O)N1` (stereo not given) are “inactive” and less than 10%.
Consider `CC1Nc2c(-c3ccc(C(=O)O)cc3)cc(Cl)cc2S(=O)(=O)N1` (stereo not given), for which, in the data set on Cerebral cortex neuron [1], the outcome was inactive. The Activity in the data set with Cerebral cortex neuron [2] is less than 10%.
The like results for `O=C(O)c1ccc(-c2cc(Cl)cc3c2NCNS3(=O)=O)cc1` were, in that order, “inactive” and less than 10%.
Regarding `CC1Nc2c(-c3ccoc3)cc(Cl)cc2S(=O)(=O)N1` (stereo not given), the EC50 in data set [3] amounted to 1300 nM. Also, the Drug uptake result in data set [4] is reported as “Not Active”; in data set [6], “Not Active”; in data set [8] it was “Active”. In addition, the concentration in data set [5] amounted to 8 µM. Also, the concentration at 40 min in data set [7] was found to be 37 µM. The outcome in the data set with Cerebral cortex neuron [1] was inactive. In the data set on Cerebral cortex neuron [2], the Activity was determined as 358%.

One may read the EC50 as the midpoint of the concentration-response curve.
